Literature values, collected in patent EP1019029B1, “MONOLITHIC SYSTEM CONTAINING ONE OR MORE DRUGS, CONSISTING OF THREE LAYERS WITH DIFFERENT RELEASE MECHANISMS” (CHIESI FARMACEUTICI S.p.A., priority 1997, dated 1999).
Like-named read-outs stand apart in the source and are kept apart here.

SMILES | water solubilities (at 37°C) [mg/mL] | water solubilities (at 20°C) [mg/mL]
C[C@@](Cc1ccc(O)c(O)c1)(NN)C(=O)O [Carbidopa] | 2.5 | –
COC(=O)[C@@H](N)Cc1ccc(O)c(O)c1 [Levodopa methyl ester] | – | 500
